{"source": "BindingDB's records for doi:10.1021/jm050824x", "about": "(Chembridge Research Laboratories and Chembridge, 2006)", "key": {"[1]": {"assay": "Antiproliferative activity against human NPM-ALK positive anaplastic large cell lymphoma karpas299 cell line"}, "[2]": {"assay": "Antiproliferative activity against murine BaF3 cell line expressing NPM-ALK"}}, "data": [{"smiles": "CN1CCN(Cc2ccc(NC(=O)c3cc(-c4ccc5c(c4)OCO5)c[nH]c3=O)cc2)CC1", "note": "[5-benzo[1,3]dioxol-5-yl-2-oxo-1,2-dihydro-pyridine-3-carboxylic acid [4-(4-methyl-piperazin-1-ylmethyl)-phenyl]-amide]", "values": [{"measurement": "IC50", "setting": "[1]", "result": 11.2, "unit": "µM"}, {"measurement": "IC50", "setting": "[2]", "result": "> 25", "unit": "µM"}]}, {"smiles": "CN1CCN(CCc2ccc(NC(=O)c3cc(-c4ccc5c(c4)OCO5)c[nH]c3=O)cc2)CC1", "note": "[5-benzo[1,3]dioxol-5-yl-2-oxo-1,2-dihydro-pyridine-3-carboxylic acid {4-[2-(4-methyl-piperazin-1-yl)-ethyl]-phenyl}-amide]", "values": [{"measurement": "IC50", "setting": "[1]", "result": 7.5, "unit": "µM"}]}, {"smiles": "CN1CCN(CCCc2ccc(NC(=O)c3cc(-c4ccc5c(c4)OCO5)c[nH]c3=O)cc2)CC1", "note": "[5-benzo[1,3]dioxol-5-yl-2-oxo-1,2-dihydro-pyridine-3-carboxylic acid {4-[3-(4-methyl-piperazin-1-yl)-propyl]-phenyl}-amide]", "values": [{"measurement": "IC50", "setting": "[2]", "result": 13.7, "unit": "µM"}]}]}
